# Test system: HepG2 cells
# Assay: In vitro inhibition of fatty acid synthesis in HepG2 cells ([14C]-acetate incorporation)
# Format: cell-based, human
# Conditions: 1 h compound, then 5 h [2-14C]-acetic acid
# Procedure: Human liver tumor cells (HepG2 cells) with strong fatty acid synthesis ability were selected. The sample to be tested was added and incubated for 1 hour. Isotope-labeled [^14C]-sodium acetate was added to the cell culture medium and incubated for 5 hours. Then the cells were lysed, and the fatty acid components in the cell were extracted and separated. The relative content of the isotope integrated into the fatty acid was analyzed, so as to detect the inhibitory effect of the compound on fatty acid synthesis in HepG2 cells at different concentrations, and the IC50 value was calculated.
# a. HepG2 cells were purchased from the American type culture collection (ATCC) resource bank. Cells were cultured in DMEM (GIBCO) containing 10% fetal bovine serum (GIBCO), penicillin (100 units/mL) and streptomycin (100 μg/mL) (GIBCO), and then incubated in a 37° C. incubator containing 5% carbon dioxide, and passaged once every 2 to 3 days.
# b. On the first day, HepG2 cells were inoculated in a 24-well cell culture plate at 2×10^5 per well, and were incubated in a 37° C. incubator containing 5% carbon dioxide.
# c. On the fourth day, the medium was changed to that containing the compound. The initial concentration of the compound was 3 μM or 0.3 μM, 3-fold dilution, 8 concentration gradients, and the final concentration of DMSO was 0.5% (v/v). The plate was incubated in a 37° C. incubator containing 5% carbon dioxide for 1 hour. GS-0976 was positive compound control; the reaction system with no compound but DMSO at a final concentration of 0.5% was negative control.
# d. 1 μCi [2-^14C]-acetic acid was added to each well, and incubated for 5 hours in a 37° C. incubator containing 5% carbon dioxide.
# e. The medium was first transferred to 15 mL centrifuge tubes. 0.5 mL of 0.1 M NaOH was added to each well of cells, and the lysed cell suspension was added to the corresponding 15 mL centrifuge tubes. 1 mL of ethanol and 0.17 mL of 50% KOH were added to each tube, and incubated in a water bath at 90° C. for 1 hour.
# f. The sample were taken out and cooled to room temperature, then 5 mL petroleum ether was added to each tube, inverted several times, and centrifuged at 1000 rpm for 5 min. The upper organic phase was discarded and the aqueous phase was kept for fatty acid extraction. 1 mL of concentrated hydrochloric acid (its pH was ensured to be below 1) was added to each tube.
# g. 5 mL petroleum ether was added to each tube, invert several times and centrifuged at 1000 rpm for 5 min. 4 mL petroleum ether layer was transferred to a new glass tube (18×180 mm). This step was repeated once.
# h. The extracts were collected and placed in a water bath at 64° C. to evaporate for 30 min. Fatty acids were dissolved with 400 μL chloroform/n-hexane (1:1).
# i. 50 μL sample were placed in iso-plate (Perkinelmer), 200 μL ULTIMA GOLD (Perkinelmer) was added to each well and incubated for 10 min at room temperature.
# j. MicroBeta (Perkinelmer) was used to record the CPM scintillation signal.
# The average value of the positive and negative control well and the standard deviation were calculated. IC50 was fitted by using XLFit 5.3.1.3 (2006-2011 ID Business Solutions Limited) with 4-Parameter Logistic Model or Sigmoidal Dose-Response Model:
# Y=(Bottom+((Top−Bottom)/(1+((Log IC50/X)^Hillslope)))),
# wherein X is the logarithm of the compound concentration, Y is CPM (count per minute); Top and Bottom are the Y values at the highest and lowest plateau of the curve; Hillslope is the Hill constant.
row,Structure (SMILES),IC50
1,"COc1ccccc1C(CN1C(=O)C2(CCC(C(=O)O)C2)C(=O)c2c1sc(-c1ncco1)c2C)OC1CCOCC1 (mixture of isomers) [Compound 5y, 7′-(2-(2-methoxyphenyl)-2-((tetrahydro-2H-pyran-4-yl)oxy)ethyl)-3′-methyl-2′-(oxazol-2-yl)-4′,6′-dioxo-6′,7′-dihydro-4′H-spiro[cyclopentane-1,5′-thieno[2,3-b]pyridine]-3-carboxylic Acid]",< 50 nM

# Same assay, conditions: Homo sapiens, HepG2, 1 h compound, then 5 h [2-14C]-acetic acid
row,Structure (SMILES),IC50
1,"COc1ccccc1C(CN1C(=O)C2(CCC(C(=O)O)C2)C(=O)c2c1sc(-c1ncco1)c2C)OC1CCOCC1 (mixture of isomers) [Compound 5x, 7′-(2-(2-methoxyphenyl)-2-((tetrahydro-2H-pyran-4-yl)oxy)ethyl)-3′-methyl-2′-(oxazol-2-yl)-4′,6′-dioxo-6′,7′-dihydro-4′H-spiro[cyclopentane-1,5′-thieno[2,3-b]pyridine]-3-carboxylic Acid]",50 to 500 nM
2,"COc1ccccc1C(CN1C(=O)C2(CC(C(=O)O)C2)C(=O)c2c1sc(-c1ncco1)c2C)OC1CCOCC1 (mixture of isomers) [Compound 8, 7′-(2-(2-methoxyphenyl)-2-((tetrahydro-2H-pyran-4-yl)oxy)ethyl)-3′-methyl-2′-(oxazol-2-yl)-4′,6′-dioxo-6′,7′-dihydro-4′H-spiro[cyclobutane-1,5′-thieno[2,3-b]pyridine]-3-carboxylic Acid]",< 50 nM
3,"COc1ccccc1C(CN1C(=O)C2(CCC(C(=O)O)C2)C(=O)c2c1sc(-c1ncco1)c2C)OC1CCOCC1 (single isomer, unassigned) [Compound 5b, 7′-(2-(2-methoxyphenyl)-2-((tetrahydro-2H-pyran-4-yl)oxy)ethyl)-3′-methyl-2′-(oxazol-2-yl)-4′,6′-dioxo-6′,7′-dihydro-4′H-spiro[cyclopentane-1,5′-thieno[2,3-b]pyridine]-3-carboxylic Acid]",< 50 nM
4,"COc1ccccc1C(CN1C(=O)C2(CC(C(=O)O)C2)C(=O)c2c1sc(-c1ncco1)c2C)OC1CCOCC1 (single isomer, unassigned) [Compound 8d, 7′-(2-(2-methoxyphenyl)-2-((tetrahydro-2H-pyran-4-yl)oxy)ethyl)-3′-methyl-2′-(oxazol-2-yl)-4′,6′-dioxo-6′,7′-dihydro-4′H-spiro[cyclobutane-1,5′-thieno[2,3-b]pyridine]-3-carboxylic Acid]",< 50 nM
5,"COc1ccccc1[C@H](CN1c2sc(-c3ncco3)c(C)c2C(=O)[C@]2(C[C@H](C(=O)O)C2)C1=O)OC1CCOCC1 [Compound 8c, 7′-(2-(2-methoxyphenyl)-2-((tetrahydro-2H-pyran-4-yl)oxy)ethyl)-3′-methyl-2′-(oxazol-2-yl)-4′,6′-dioxo-6′,7′-dihydro-4′H-spiro[cyclobutane-1,5′-thieno[2,3-b]pyridine]-3-carboxylic Acid]",< 50 nM
